Test results: patent US11498930B2 (BLUERAY THERAPEUTICS (SHANGHAI) CO., LTD., priority 2018, dated 2022)
Read-outs that look alike come from different tables or passages of the source.

Legend:
[1] = system: phosphorylation level of intracellular protein kinase (ERK) in MOLM13 cells; assay: Phosphorylated protein kinase (p-ERK) cell experiment (AlphaLISA); type: cell-based
Experimental: The inhibitory activities of the compounds on the phosphorylation level of intracellular protein kinase (ERK) were determined by AlphaLISA method.
Firstly, the cells were treated with the compounds. The compounds to be tested were subjected to 3-fold dilution with 100% DMSO, and a total of 9 different concentration gradients were set. MOLM13 cells were then seeded into 96-well plates at a density of 30,000 cells per well in a volume of 100 µL per well. […] of DMSO or the test compounds with different concentrations was then transferred into each well, setting two duplicates for each concentration, and the final concentration of DMSO was controlled at 0.5%.
Secondly, the cells were lysed. After 2 hours of cell treatment, the medium was removed, and the cells were washed 3 times with phosphate buffered saline. 50 µL of freshly prepared lysis buffer was added to each well, and the plates were shaken and kept at room temperature for 10 minutes.
Thirdly, the phosphorylated extracellular signal-regulated kinase (p-ERK) was detected by AlphaLISA@ SureFire® Ultra™ p-ERK 1/2 (Thr202/Tyr204) kit (Perkin Elmer, ALSU-PERK-A10K). 10 µL of the above lysate was transferred to a 384-well plate (Perkin Elmer, 6005350), and the phosphorylation level of the extracellular signal-regulated kinase of the sample was detected according to the product instructions. The signal was read using AlphaScreen detector on Spectra max i3 (Molecular Devices). The percentage of inhibition (%) was calculated by the following formula: Inhibition percentage(%)=(1−p-ERK signal of compound-treated cells/p-ERK signal of DMSO-treated cells)*100

SHP2^E76A protein = SHP2^E76A protein (Homo sapiens (Human), UniProt Q06124, E76A); assay: SHP2 enzyme activity inhibition experiment; type: biochemical
SHP2^E76A protein, sequence (Q06124 whole entry E76A): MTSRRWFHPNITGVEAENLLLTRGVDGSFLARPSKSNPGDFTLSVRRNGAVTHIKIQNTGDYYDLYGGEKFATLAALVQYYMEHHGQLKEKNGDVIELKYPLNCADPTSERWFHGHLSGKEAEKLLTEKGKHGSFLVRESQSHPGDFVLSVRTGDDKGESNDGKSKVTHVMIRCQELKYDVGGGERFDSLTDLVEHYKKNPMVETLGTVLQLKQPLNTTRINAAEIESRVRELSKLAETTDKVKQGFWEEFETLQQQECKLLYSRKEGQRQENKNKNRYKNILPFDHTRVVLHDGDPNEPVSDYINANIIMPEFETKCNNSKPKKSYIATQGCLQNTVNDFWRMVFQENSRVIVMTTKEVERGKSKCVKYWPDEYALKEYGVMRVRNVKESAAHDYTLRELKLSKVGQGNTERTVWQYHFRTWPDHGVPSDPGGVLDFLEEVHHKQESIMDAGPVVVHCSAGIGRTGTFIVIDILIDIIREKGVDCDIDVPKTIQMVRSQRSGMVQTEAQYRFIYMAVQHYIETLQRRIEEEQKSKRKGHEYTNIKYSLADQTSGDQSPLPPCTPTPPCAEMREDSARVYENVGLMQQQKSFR
Experimental: Compound powders were dissolved in DMSO to prepare mother liquor.
During the experiment, the stock solutions of the compounds were subjected to 3-fold gradient dilution with DMSO, and 10 different test concentrations of each compound were set. […] The protein used was the activated protein SHP^2E76A with amino acid mutation at position 76 of the protein, and the substrate used was DiFMUP (Invitrogen, E12020). […] 50 µL of enzyme solution was added to the detection wells, followed by 50 µL of substrate. […] GraphPad Prism 5 was used for nonlinear regression analysis, and the curve of enzyme activity versus compound concentration was fitted by the equation Y=Bottom+(Top-Bottom)/(1+10^((Log IC50−X)*HillSlope)) to calculate the IC50 value of each compound.

MOLM-13 cells = assay: MOLM-13 cell proliferation experiment; type: cell-based; conditions: Homo sapiens
Experimental: After 3 days, 5 µL of CellTiter-Glo reagent (Promega, ZG7572) was added to each well, and the plates were kept at room temperature in the dark for 10 minutes. The […] was detected by Spectra max i3 (Molecular Devices). The relative growth rate of the treated cells was compared with that of DMSO control.

[2] = p-ERK, MOLM13 cells, 2 hours of cell treatment, Tables 2.1 and 2.2, read-out: IC50
[3] = Homo sapiens, MOLM-13, MOLM13 cells, Table 4, read-out: p-ERK IC50
[4] = SHP2 enzyme activity, Tables 1.1 and 1.2, read-out: IC50
[5] = Table 4, read-out: SHP2 enzyme activity IC50
[6] = MOLM-13, 72 h, MOLM-13 cell proliferation, 3 days, Tables 3.1 and 3.2, read-out: IC50
[7] = MOLM-13, read-out: MOLM-13 cell proliferation IC50
[8] = Homo sapiens, MOLM-13, p-ERK, MOLM13 cells, 2 hours of cell treatment, Tables 2.1 and 2.2, read-out: IC50

Structure (SMILES) | IC50 (SHP2^E76A protein; [4]) [nM] | IC50 (MOLM-13 cells; [6]) [nM] | IC50 [1, 8] [nM] | other results
CC1C[C@@H](N)C2(CCN(c3ncc(Sc4cccc(Cl)c4Cl)c4nncn34)CC2)C1 (some centres unmarked) |  |  |  | IC50 [1, 2]: < 100 nM
C[C@@H]1OCC2(CCN(c3ncc(Sc4ccnc(N)c4Cl)c4nncn34)CC2)[C@@H]1N | < 100 | 100 to 1000 |  | IC50 [1, 3]: 335 nM; IC50 (SHP2^E76A protein; [5]): 13 nM; IC50 (MOLM-13 cells; [7]): 102 nM
C[C@@H]1OCC2(CCN(c3ncc(Sc4cccc(Cl)c4Cl)c4nncn34)CC2)[C@@H]1N [listing 1 of 2 here] |  |  |  | IC50 [1, 3]: 195 nM; IC50 (SHP2^E76A protein; [5]): 3 nM; IC50 (MOLM-13 cells; [7]): 158 nM
C[C@@H]1OCC2(CCN(c3ncc(Sc4cccc(Cl)c4Cl)c4nncn34)CC2)[C@@H]1N [listing 2 of 2 here] | < 100 | 100 to 1000 | 100 to 1000 | 
N[C@@H]1CC(O)CC12CCN(c1ncc(Sc3cccc(Cl)c3Cl)c3nccn13)CC2 (some centres unmarked) | < 100 | < 100 | < 100 | IC50 [1, 3]: 28 nM; IC50 (SHP2^E76A protein; [5]): 9 nM; IC50 (MOLM-13 cells; [7]): 42 nM
N[C@@H]1CCCC12CCN(c1ncc(Sc3cccnc3Cl)c3nccn13)CC2 |  | 100 to 1000 | 100 to 1000 | 
N[C@@H]1CCCC12CCN(c1ncc(Sc3cccc(NC(=O)c4c(O)nc5n(c4=O)CCCC5)c3Cl)c3nccn13)CC2 |  |  |  | IC50 [1, 2]: < 100 nM
CC1(N)CCN(c2ncc(Sc3cccc(Cl)c3Cl)c3nncn23)CC1 [1-(8-((2,3-dichlorophenyl)thio)-[1,2,4]triazolo[4,3-c]pyrimidin-5-yl)-4-methylpiperidin-4-amine] | 100 to 1000 | 1000 to 10000 | 1000 to 10000 | 
CC1(N)CCN(c2ncc(Sc3ccnc(N)c3Cl)c3nncn23)CC1 [4-((5-(4-amino-4-methylpiperidin-1-yl)-[1,2,4]triazolo[4,3-c]pyrimidin-8-yl)thio)-3-chloropyridin-2-amine] | 100 to 1000 | 1000 to 10000 | 1000 to 10000 | 
CC1(CN)CCN(c2ncc(Sc3cccc(Cl)c3Cl)c3nncn23)CC1 [(1-(8-((2,3-dichlorophenyl)thio)-[1,2,4]triazolo[4,3-c]pyrimidin-5-yl)-4-methylpiperidin-4-yl)methanamine] | < 100 | 1000 to 10000 | 100 to 1000 | IC50 [1, 3]: 170 nM; IC50 (SHP2^E76A protein; [5]): 40 nM; IC50 (MOLM-13 cells; [7]): 1360 nM
NCC1CCN(c2ncc(Sc3cccc(Cl)c3Cl)c3nncn23)C1 (centres unmarked) [(1-(8-((2,3-dichlorophenyl)thio)-[1,2,4]triazolo[4,3-c]pyrimidin-5-yl)pyrrolidin-3-yl)methanamine] | 100 to 1000 | 1000 to 10000 | 1000 to 10000 | 
CC1C[C@@H](N)C2(CCN(c3ncc(Sc4cccc(Cl)c4Cl)c4nncn34)CC2)C1 (stereo partly drawn) [(1R)-8-(8-((2,3-dichlorophenyl)thio)-[1,2,4]triazolo[4,3-c]pyrimidin-5-yl)-3-methyl-8-azaspiro[4.5]decan-1-amine] | < 100 | < 100 |  | IC50 [1, 3]: 64 nM; IC50 (SHP2^E76A protein; [5]): 4 nM; IC50 (MOLM-13 cells; [7]): 59 nM
CC1CCC2(CCN(c3ncc(Sc4cccc(Cl)c4Cl)c4nccn34)CC2)[C@@H]1N (stereo partly drawn) [(1R)-8-(8-((2,3-dichlorophenyl)thio)imidazo[1,2-c]pyrimidin-5-yl)-2-methyl-8-azaspiro[4.5]decan-1-amine] | < 100 | 100 to 1000 | 100 to 1000 | 
CC1C[C@@H](N)C2(CCN(c3ncc(Sc4cccc(Cl)c4Cl)c4nccn34)CC2)C1 (stereo partly drawn) [(1R)-8-(8-((2,3-dichlorophenyl)thio)imidazo[1,2-c]pyrimidin-5-yl)-3-methyl-8-azaspiro[4.5]decan-1-amine] | < 100 | 100 to 1000 | < 100 | IC50 [1, 3]: 53 nM; IC50 (SHP2^E76A protein; [5]): 11 nM; IC50 (MOLM-13 cells; [7]): 140 nM
N[C@@H]1CCOC12CCN(c1ncc(Sc3cccc(Cl)c3Cl)c3nccn13)CC2 [(R)-8-(8-((2,3-dichlorophenyl)thio)imidazo[1,2-c]pyrimidin-5-yl)-1-oxa-8-azaspiro[4.5]decan-4-amine] | 100 to 1000 |  | 100 to 1000 | 
N[C@@H]1CCCC12CCN(c1ncc(Sc3ccc(Cl)cc3Cl)c3nncn13)CC2 [(R)-8-(8-((2,4-dichlorophenyl)thio)-[1,2,4]triazolo[4,3-c]pyrimidin-5-yl)-8-azaspiro[4.5]decan-1-amine] | 100 to 1000 | 1000 to 10000 |  | 
CC(C)c1ccccc1Sc1cnc(N2CCC3(CCC[C@H]3N)CC2)n2cnnc12 [(R)-8-(8-((2-isopropylphenyl)thio)-[1,2,4]triazolo[4,3-c]pyrimidin-5-yl)-8-azaspiro[4.5]decan-1-amine] | 100 to 1000 | 1000 to 10000 |  | 
COc1ccccc1Sc1cnc(N2CCC3(CCC[C@H]3N)CC2)n2cnnc12 [(R)-8-(8-((2-methoxyphenyl)thio)-[1,2,4]triazolo[4,3-c]pyrimidin-5-yl)-8-azaspiro[4.5]decan-1-amine] | 100 to 1000 | 100 to 1000 |  | 
Nc1cccc(Sc2cnc(N3CCC4(CCC[C@H]4N)CC3)n3ccnc23)c1Cl [(R)-8-(8-((3-amino-2-chlorophenyl)thio)imidazo[1,2-c]pyrimidin-5-yl)-8-azaspiro[4.5]decan-1-amine] | 100 to 1000 | 100 to 1000 |  | 
N[C@@H]1CCCC12CCN(c1ncc(Sc3ccncc3Cl)c3ncnn13)CC2 [(R)-8-(8-((3-chloropyridin-4-yl)thio)-[1,2,4]triazolo[1,5-c]pyrimidin-5-yl)-8-azaspiro[4.5]decan-1-amine] | 1000 to 10000 | 1000 to 10000 |  | 
N[C@@H]1CCCC12CCN(c1ncc(Sc3cccc4ccccc34)c3nncn13)CC2 [(R)-8-(8-(naphthalen-1-ylthio)-[1,2,4]triazolo[4,3-c]pyrimidin-5-yl)-8-azaspiro[4.5]decan-1-amine] | < 100 | 100 to 1000 |  | 
N[C@@H]1CCCC12CCN(c1ncc(Sc3ccccc3)c3nccn13)CC2 [(R)-8-(8-(phenylthio)imidazo[1,2-c]pyrimidin-5-yl)-8-azaspiro[4.5]decan-1-amine] | 100 to 1000 | 100 to 1000 |  | 
N[C@@H]1CCCC12CCN(c1ncc(Sc3cccc(NC(=O)c4c(O)nc5n(c4=O)CCCC5)c3Cl)c3nccn13)CC2 [(R)-N-(3-((5-(1-amino-8-azaspiro[4.5]decan-8-yl)imidazo[1,2-c]pyrimidin-8-yl)thio)-2-chlorophenyl)-2-hydroxy-4-oxo-6,7,8,9-tetrahydro-4H-pyrido[1,2-a]pyrimidin-3-carboxamide] | 100 to 1000 | 100 to 1000 |  | 
N[C@@H]1COCC12CCN(c1ncc(Sc3cccc(Cl)c3Cl)c3nccn13)CC2 [(S)-8-(8-((2,3-dichlorophenyl)thio)imidazo[1,2-c]pyrimidin-5-yl)-2-oxa-8-azaspiro[4.5]decan-4-amine] | < 100 | 100 to 1000 |  | 
N[C@@H]1COCC12CCN(c1ncc(Sc3ccnc(Cl)c3Cl)c3nncn13)CC2 [(S)-8-(8-((2,3-dichloropyridin-4-yl)thio)-[1,2,4]triazolo[4,3-c]pyrimidin-5-yl)-2-oxa-8-azaspiro[4.5]decan-4-amine] | 100 to 1000 | 100 to 1000 |  | 
Nc1cc(Sc2cnc(N3CCC4(CC3)COC[C@H]4N)n3cnnc23)c(Cl)c(Cl)n1 [(S)-8-(8-((6-amino-2,3-dichloropyridin-4-yl)thio)-[1,2,4]triazolo[4,3-c]pyrimidin-5-yl)-2-oxa-8-azaspiro[4.5]decan-4-amine] | < 100 | 1000 to 10000 |  | 
COC(=O)c1ccccc1Sc1cnc(N2CCC3(CCC[C@H]3N)CC2)n2ccnc12 [Methyl (R)-2-((5-(1-amino-8-azaspiro[4.5]decan-8-yl)imidazo[1,2-c]pyrimidin-8-yl)thio)benzoate] | 100 to 1000 | 100 to 1000 |  | 
CC1(N)CCN(c2cnc(-c3cccc(Cl)c3Cl)c(N)n2)CC1 [SHP099, 6-(4-amino-4-methylpiperidin-1-yl)-3-(2,3-dichlorophenyl)pyrazin-2-amine, reference compound] |  |  |  | IC50 ([1]; Homo sapiens, MOLM-13, read-out: p-ERK IC50): 2070 nM
